Laboratory results from PMC7807814 (ACS Omega, 2020).

Target: GST–VCB protein complex (Homo sapiens, UniProt P40337)
Type: binding
Details: reported FP Kd versus TR-FRET Ki

Sequence of GST–VCB protein complex (P40337 54-213): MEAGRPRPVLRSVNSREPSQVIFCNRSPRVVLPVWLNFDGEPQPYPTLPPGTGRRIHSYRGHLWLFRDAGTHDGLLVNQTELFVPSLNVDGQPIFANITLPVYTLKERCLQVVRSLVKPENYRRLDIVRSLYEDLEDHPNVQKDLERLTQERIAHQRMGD
Sequence of GST–VCB protein complex (Q15369 17-112, further chain): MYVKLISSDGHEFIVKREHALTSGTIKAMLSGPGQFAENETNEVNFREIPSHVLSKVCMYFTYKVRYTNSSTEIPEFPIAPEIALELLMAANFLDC
Sequence of GST–VCB protein complex (Q15370 whole entry, further chain): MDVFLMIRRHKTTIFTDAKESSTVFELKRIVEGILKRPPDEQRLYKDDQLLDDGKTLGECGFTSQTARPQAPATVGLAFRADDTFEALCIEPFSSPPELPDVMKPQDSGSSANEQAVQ

| sensitivity of TR-FRET assay over FAM–HIF–1α peptide (19 mer)-based FP assay [fold] | SMILES |
| --- | --- |
| 4.23 | Cc1ncsc1-c1ccc(CNC(=O)[C@@H]2C[C@@H](O)CN2C(=O)[C@@H](NC(=O)C2(C#N)CC2)C(C)(C)C)cc1 [VH298 (2), (2S,4R)-1-((S)-2-(1-Cyanocyclopropanecarboxamido)-3,3-dimethylbutanoyl)-4-hydroxy-N-(4-(4-methylthiazol-5-yl)benzyl)pyrrolidine-2-carboxamide] |
| 4.49 | CC(=O)N[C@H](C(=O)N1C[C@H](O)C[C@H]1C(=O)NCc1ccc(-c2scnc2C)cc1)C(C)(C)C [VH032 (1), (2S,4R)-1-((S)-2-Acetamido-3,3-dimethylbutanoyl)-4-hydroxy-N-(4-(4-methylthiazol-5-yl)benzyl)pyrrolidine-2-carboxamide] |
